This is an account of results in patent publication US4568687A, “N-[2-4-(1H-Imidazol-1-yl)alkyl]-arylamides and pharmaceutical compositions” (American Cyanamid Company, priority 1984, dated 1986).

Structures are written as SMILES. Counter-ions that a name gives are not always drawn.

The target in this assay is T1, thromboxane synthetase (Rattus norvegicus, UniProt P49430).
T1 construct: The platelets were isolated by centrifuging the PRP for 10 minutes; endogenous in cells; host or cells: washed platelets from arterial blood of Okamoto-Aoki spontaneously hypertensive rats (rats from Taconic Farms)
T1 sequence (P49430 1-533): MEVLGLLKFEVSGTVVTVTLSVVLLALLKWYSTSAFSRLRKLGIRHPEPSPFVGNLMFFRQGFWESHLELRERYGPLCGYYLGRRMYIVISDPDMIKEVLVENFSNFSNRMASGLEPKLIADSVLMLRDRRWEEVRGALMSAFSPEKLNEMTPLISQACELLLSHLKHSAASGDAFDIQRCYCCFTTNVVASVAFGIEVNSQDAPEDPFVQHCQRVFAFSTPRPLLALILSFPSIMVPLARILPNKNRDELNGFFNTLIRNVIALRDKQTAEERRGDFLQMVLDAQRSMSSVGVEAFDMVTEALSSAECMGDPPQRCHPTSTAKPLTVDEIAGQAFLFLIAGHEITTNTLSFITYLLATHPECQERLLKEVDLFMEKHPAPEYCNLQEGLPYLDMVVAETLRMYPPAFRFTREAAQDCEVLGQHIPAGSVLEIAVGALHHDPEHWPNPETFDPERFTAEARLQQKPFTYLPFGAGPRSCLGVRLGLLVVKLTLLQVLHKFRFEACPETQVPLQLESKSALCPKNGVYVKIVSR
The assay is described as follows: Inhibition of thromboxane (TXB2) formation in washed rat platelets, TXB2 by direct radioimmunoassay. It is filed as cell-based, Okamoto-Aoki spontaneously hypertensive rats (SHR). The following applies: 10 min; Dose 10^-4 (unit inferred); SHR platelet suspension, 10 minutes at 37° C. The method, then:
Under urethan anesthesia, […] of arterial blood was collected in one ml. of 3.2% sodium citrate in a polystyrene tube from Okamoto-Aoki spontaneously hypertensive rats (SHR) (Taconic Farms, Germantown, NY) between 19 and 24 weeks in age. The blood was diluted with 3 ml. cold saline and centrifuged at room temperature for 15 minutes at 460×g. The platelet rich plasma (PRP) was separated. The platelets were isolated by centrifuging the PRP for 10 minutes at 1060×g and were washed in 4 ml. cold oxygenated Krebs phosphate buffer, pH 7.4. The chilled patelets recovered from centrifuging at 800×g for 10 minutes were resuspended in oxygenated Krebs phosphate buffer and diluted to contain 4.5-6.0×10^4 platelets/μl.
The inhibition of thromboxane (TX) formation was studied by determining the […] of thromboxane B2 (TXB2), the stable hydrolysis product of TXA2. Assay samples, prepared on ice, contained 200 μl platelet suspension, 50 μl saline, and 50 μl vehicle or drug under study (OKY-1581, UK-37248-01, 1-benzylimidazole, or indomethacin). The samples were incubated for 10 minutes at 37° C. in a metabolic shaker. The reaction was terminated by immersing the tubes in an ice bath and adding 50 μl of 0.5M citric acid. The samples were centrifuged for 10 minutes in a refrigerated centrifuge and the supernatants thus obtained were decanted and stored at -20° C. The TXB2 content for each sample was determined by a direct radioimmunoassay (RIA) utilizing a TXB2 specific RIA kit purchased from New England Nuclear, Boston, MA and expressed as pg TXB2 formed minute^-1 sample^-1, from which the percent inhibition of TXB2 formation was calculated.
Consider `O=C(Cc1ccc(F)cc1)NCCCn1ccnc1` [4-fluoro-N--[3-(1H--imidazol-1-yl)propyl]benzeneacetamide, fumarate], for which the inhibition at 100 µM came out at 53.1%.

As for `O=C(NCCn1ccnc1)c1ccc(Cl)c(Cl)c1` [3,4-dichloro-N--[2-(1H--imidazol-1-yl)ethyl]benzamide], the inhibition at 100 µM was 58.5%.

With `O=C(NC(CCn1ccnc1)c1ccccc1)c1ccc(Cl)cc1` (centres unmarked) [4-chloro-N--[3-(1H--imidazol-1-yl)-1-phenylpropyl]benzamide], the inhibition at 100 µM is 100%.

As for `CC(CCNC(=O)c1ccc(Br)cc1)n1ccnc1` (centres unmarked) [4-bromo-N--[3-(1H--imidazol-1-yl)butyl]benzamide], the inhibition at 100 µM was found to be 91%.

Turning to `O=C(COc1ccc(Cl)cc1)NCCCn1ccnc1` [2-(4-chlorophenoxy)-N--[3-(1H--imidazol-1-yl)propyl]acetamide], the inhibition at 100 µM amounted to 84.6%.

For `CNc1ccccc1C(=O)NCCCn1ccnc1` [N--[3-(1H--imidazol-1-yl)propyl]-2-methylaminobenzamide], the inhibition at 100 µM came out at 57%.

Consider `CCNc1ccccc1C(=O)NCCCn1ccnc1` [2-ethylamino-N--[3-(1H--imidazol-1-yl)propyl]benzamide], for which the inhibition at 100 µM turned out to be 86%.

On to `O=C(NCCCn1ccnc1)c1cccc(C(F)(F)F)c1` [3-trifluoromethyl-N--[3-(1H--imidazol-1-yl)propyl]benzamide], for which the inhibition at 100 µM is 84%.

For `O=C(NCCCn1cnc(-c2ccccc2)c1)c1ccc(Br)cc1` [4-Bromo-N-[3-(4-phenyl-1H-imidazol-1-yl)propyl]benzamide], the inhibition at 100 µM was found to be 66%.

Consider `CS(=O)(=O)c1ccc(C(=O)NCCCn2ccnc2)cc1` [N--[3-(1H--imidazol-1-yl)propyl]-4-(methylsulfonyl)benzamide], for which the inhibition at 100 µM came out at 80.1%.

Regarding `CC(=O)c1ccc(C(=O)NCCCn2ccnc2)cc1` [4-acetyl-N--[3-(1H--imidazol-1-yl)propyl]benzamide], the inhibition at 100 µM is 89.5%.

`O=C(NCCCn1ccnc1)C(c1ccccc1)c1ccccc1` [N-[3-(1H-imidazol-1-yl)propyl]diphenylacetamide]: the inhibition at 100 µM is 84%.

`O=C(NCCCn1ccnc1)c1ccc(I)cc1` [N--[3-(1H--imidazol-1-yl)propyl]-4-iodobenzamide]: the inhibition at 100 µM worked out at 96.7%.

Take `CC(CCNC(=O)c1ccc(Cl)cc1)n1ccnc1` (centres unmarked) [4-chloro-N--[3-(1H--imidazol-1-yl)butyl]benzamide]: the inhibition at 100 µM worked out at 96%.

Regarding `N#Cc1ccc(C(=O)NCCCn2ccnc2)cc1` [4-cyano-N--[3-(1H--imidazol-1-yl)propyl]benzamide], the inhibition at 100 µM was 90.7%.

Regarding `Cc1ccc(C(=O)NCCCn2ccnc2)cc1` [N--[3-(1H--imidazol-1-yl)propyl]-4-methylbenzamide], the inhibition at 100 µM came out at 83.2%.

In the case of `CSc1ccc(C(=O)NCCCn2ccnc2)cc1` [N--[3-(1H--imidazol-1-yl)propyl]-4-(methylthio)-benzamide], the inhibition at 100 µM was 102%.

On to `CN(C)c1ccc(C(=O)NCCCn2ccnc2)cc1` [N--[3-(1H--imidazol-1-yl)propyl]-4-(dimethylamino)benzamide], for which the inhibition at 100 µM was 93%.

For `O=C(NC(CCn1ccnc1)c1ccccc1)c1ccc(Br)cc1` (centres unmarked) [4-bromo-N--[3-(1H--imidazol-1-yl)-1-phenylpropyl]benzamide], the inhibition at 100 µM worked out at 100%.

Turning to `COc1ccc(C(=O)NCCCn2ccnc2)cc1` [N--[3-(1H--imidazol-1-yl)propyl]-4-methoxybenzamide], the inhibition at 100 µM came to 88.9%.

As to `Cc1cn(CCCNC(=O)c2cccc(Br)c2)cn1` [3-bromo-N--[3-(4-methyl-1H--imidazol-1-yl)propyl]benzamide], the inhibition at 100 µM was 93%.

On to `O=C(NCCCCn1ccnc1)c1ccc(Cl)c(Cl)c1` [3,4-Dichloro-N-[4-(1H-imidazol-1-yl)butyl]benzamide], for which the inhibition at 100 µM stood at 100%.

On to `CC(CCNC(=O)c1cccc(Cl)c1)n1ccnc1` (centres unmarked) [3-chloro-N--[3-(1H--imidazol-1-yl)butyl]benzamide], for which the inhibition at 100 µM worked out at 93%.

With `O=C(NCCCn1ccnc1)c1ccccc1F` [2-fluoro-N--[3-(1H--imidazol-l-yl)propyl]benzamide], the inhibition at 100 µM worked out at 83.9%.

`O=C(NCCCn1ccnc1)C(=O)c1ccccc1` [N-[3-(1H-Imidazol-1-yl)propyl]-α-oxo-benzeneacetamide, fumarate]: the inhibition at 100 µM came to 79.7%.

For `O=C(NCCCn1ccnc1)c1ccccc1Cl` [2-chloro-N--[3-(1H--imidazol-1-yl)propyl]benzamide], the inhibition at 100 µM worked out at 99.7%.

On to `O=C(NCCCn1ccnc1)c1ccc(C(=O)c2ccccc2)cc1` [4-benzoyl-N--[3-(1H--imidazol-1-yl)propyl]benzamide], for which the inhibition at 100 µM was determined as 103%.

Consider `O=C(COc1ccccc1)NCCCn1ccnc1` [N-[3-(1H-Imidazol-1-yl)propyl]-2-phenoxyacetamide], for which the inhibition at 100 µM is 86.2%.

Consider `O=C1c2ccccc2C(=O)N1CCCCCn1ccnc1` [2-[5-(1H--imidazol-1-yl)pentyl]-1H--isoindole-1,3(2H)--dione], for which the inhibition at 100 µM was 92%.

`COc1cc(C(=O)NCCCn2ccnc2)cc(OC)c1OC` [N--[3-(1H--imidazol-1-yl)propyl]-3,4,5-trimethoxybenzamide]: the inhibition at 100 µM came to 101%.

As to `O=C(NCCCn1ccnc1)C1c2ccccc2-c2ccccc21` [N--[3-(1H--imidazol-1-yl)propyl]-9H--fluorene-9-carboxamide], the inhibition at 100 µM was 100%.

As to `O=C(NCCCCn1ccnc1)c1cccc2ccccc12` [N--[4-(1H--imidazol-1-yl)butyl]-naphthalene-1-carboxamide], the inhibition at 100 µM came to 95%.

Regarding `O=C(NCCCn1ccnc1)c1ccc(Cl)c(Cl)c1` [3,4-dichloro-N--[3-(1H--imidazol-1-yl)propyl]benzamide], the inhibition at 100 µM amounted to 92.7%.

For `O=C(COc1cccc(Cl)c1Cl)NCCCn1ccnc1` [2-(2,3-dichlorophenoxy)-N--[3-(1H--imidazol-1-yl)propyl]acetamide, fumarate], the inhibition at 100 µM was determined as 100%.

Consider `Cc1cn(CCCNC(=O)c2ccc(I)cc2)cn1` [4-iodo-N--[3-(4-methyl-1H--imidazol-1-yl)propyl]benzamide], for which the inhibition at 100 µM turned out to be 99%.

On to `CC(=O)Nc1ccc(C(=O)NCCCn2ccnc2)cc1` [4-(acetylamino)-N--[3-(1H--imidazol-1-yl)propyl]benzamide], for which the inhibition at 100 µM was 98.7%.

`O=C(NCCCn1ccnc1)c1ccc(-c2ccccc2)cc1` [N--[3-(1H--imidazol-1-yl)propyl][1,1'-biphenyl]-4-carboxamide]: the inhibition at 100 µM was determined as 106%.

On to `O=C(NCCCn1ccnc1)c1ccc(F)cc1` [4-fluoro-N--[3-(1H--imidazol-1-yl)propyl]benzamide], for which the inhibition at 100 µM stood at 87.1%.

For the compound `CC(CNC(=O)c1ccc(Cl)cc1)Cn1ccnc1` (centres unmarked) [4-chloro-N--[3-(1H--imidazol-1-yl)-2-methylpropyl]benzamide fumarate], the inhibition at 100 µM worked out at 100%.

As to `O=C(NCCCn1ccnc1)c1cccc(F)c1` [3-fluoro-N--[3-(1H--imidazol-1-yl)propyl]benzamide], the inhibition at 100 µM is 95.8%.

As to `Cc1ccc(CC(=O)NCCCn2cnc(C)c2)cc1` [4-methyl-N--[3-(4-methyl-1H--imidazol-1-yl)propyl]phenylacetamide], the inhibition at 100 µM was 76%.

The inhibition is the drop in the measured response relative to a control, in per cent.
